pIC50: −log10 of the molar value. Values belong to the compound of their own block, whether it stands above or below them. *1 amine or outer side, *2 acyl side, *3 side chain or, on linkers, in order; H or OH if unused. Where a SMILES comes first, the peptide text is derived from it. Bridges are numbered along the chain shown (N, C = ends). Roman numbers before positions name the chains, in order. Side-chain parts run from the residue outwards. [ ]: non-standard residue; d: D form. The star is where a group is joined. ξ: configuration not given here. X1 = CC(C)(C)C(=O)CN1C(=O)[C@H](N*)CN(C2CCCCC2)c2ccccc21; DOTA = O=C(O)CN1CCN(CC(=O)O)CCN(CC(=O)*)CCN(CC(=O)O)CC1; γGlu = O=C(O)[C@H](CCC(=O)[*:2])N[*:1]; X2 = CC(=O)[C@H](Cc1ccc(O)cc1)N*; X3 = CC(=O)[C@@H](N*)[C@@H](C)O; 3Abz = Nc1cccc(C(=O)O)c1; ξF = NC(Cc1ccccc1)C(=O)O; ξE = NC(CCC(=O)O)C(=O)O; AEEA = NCCOCCOCC(=O)O; CO = O=C([*:1])[*:2]
Columns and labels:
CCK2R [1] = molecular target: T1, CCK2R (Homo sapiens, UniProt P32239); assay: Competitive binding (FACS) on CCK2R-transfected HEK 293T cells with Cy5-labeled Z360; conditions: HEK 293T transfected, Cy5-labeled Z360 competitive ligand (Table 3)
T1 construct: expressed in transfected cells; host or cells: HEK 293T cells
T1 sequence (P32239 1-447): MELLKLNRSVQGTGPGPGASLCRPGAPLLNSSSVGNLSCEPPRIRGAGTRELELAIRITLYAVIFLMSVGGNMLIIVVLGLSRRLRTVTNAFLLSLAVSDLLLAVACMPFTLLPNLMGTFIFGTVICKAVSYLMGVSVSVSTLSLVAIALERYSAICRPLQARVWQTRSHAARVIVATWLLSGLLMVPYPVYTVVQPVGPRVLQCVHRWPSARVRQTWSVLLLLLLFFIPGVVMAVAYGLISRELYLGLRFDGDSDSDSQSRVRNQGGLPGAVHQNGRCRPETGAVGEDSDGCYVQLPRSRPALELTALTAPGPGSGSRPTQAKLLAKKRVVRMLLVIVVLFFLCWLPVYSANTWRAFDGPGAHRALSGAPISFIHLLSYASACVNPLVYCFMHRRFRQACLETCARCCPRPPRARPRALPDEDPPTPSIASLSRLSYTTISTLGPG
Experimental: (§1) Binding Affinity Tested by Using Cy5-Labled Competitive Ligands.
(§2) HEK 293T cells were transfected with SSTR2 or CCK2R-expressing plasmid by Lipofectamine 2000 reagent. 24 hours after transfection, cells were harvested and suspended with assay buffer (1% OVA in DMEM). […] The testing compound was further supplemented into the wells at different concentrations. After incubation for 1 hour at dark, cells were washed and suspended in FACS buffer (1% OVA in DPBS). The fluorescent signal was detected by FACS machine and the binding affinity of the testing compound was evaluated by calculation of IC50 for competitive binding of reference compound.

CCK2R [2] = molecular target: T2, CCK2R (Rattus norvegicus, UniProt P30553); assay: Competitive cell-binding assay on AR42J cells with 125I-C3 as competitive ligand; conditions: AR42J cells, 125I-C3 competitive ligand, 37° C. 1 h; read-out: CCK2R/IC50
T2 construct: host or cells: AR42J cells
T2 sequence (P30553 1-452): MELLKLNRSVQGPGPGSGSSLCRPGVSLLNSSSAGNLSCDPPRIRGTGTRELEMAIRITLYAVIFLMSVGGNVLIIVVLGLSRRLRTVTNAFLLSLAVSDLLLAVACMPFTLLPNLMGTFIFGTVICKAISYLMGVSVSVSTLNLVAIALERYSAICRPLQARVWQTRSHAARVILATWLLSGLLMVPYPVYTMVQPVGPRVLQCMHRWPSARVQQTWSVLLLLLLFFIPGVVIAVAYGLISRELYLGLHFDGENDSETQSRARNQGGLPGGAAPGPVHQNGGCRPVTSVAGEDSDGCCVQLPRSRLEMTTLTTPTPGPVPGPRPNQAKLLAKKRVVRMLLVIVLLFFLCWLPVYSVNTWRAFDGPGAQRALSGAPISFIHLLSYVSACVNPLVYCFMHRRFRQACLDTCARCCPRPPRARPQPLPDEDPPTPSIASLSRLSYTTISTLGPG
In short: (§3)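 Rat AR42J cells (1~3×10^6 cells/mL) in RPMI-1640 with 0.25% BSA incubated with 125I-C1 or 125I-C3 (0.02 μCi/well) plus test compound (0-10000 nM) for 1 h at 37° C., n=3. Unbound ligand removed by filtration; bound radioactivity γ-counted; IC50 by nonlinear regression.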

in vivo = conditions: BALB/c nude, mouse, in vivo, iv, total radioactivity
In short: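 Compounds labelled with ^177Lu in 0.5 M NaOAc pH 4.5 at 95° C for 15 min, then used directly or diluted in PBS with 3 mg/mL ascorbate. BALB/c nude mice bore subcutaneous AR42J flank xenografts (0.05-0.50 g). Organs excised at 4, 24 and 72 h post-injection and γ-counted for % ID and % ID/g.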

SSTR2 [3] = molecular target: T3, SSTR2 (Rattus norvegicus, UniProt P30680); assay: Competitive cell-binding assay on AR42J cells with 125I-C1 as competitive ligand; conditions: AR42J cells, 125I-C1 competitive ligand, 37° C. 1 h; read-out: SSTR2/IC50
T3 construct: host or cells: AR42J cells
In short: as §3

SSTR2 [4] = molecular target: T4, SSTR2 (Homo sapiens, UniProt P30874); assay: Competitive binding (FACS) on SSTR2-transfected HEK 293T cells with Cy5-labled DOTA-TATE; conditions: HEK 293T transfected, Cy5-labled DOTA-TATE competitive ligand (Table 4)
T4 construct: expressed in transfected cells; host or cells: HEK 293T cells
Experimental: as §1, §2

CCK2R [5] = molecular target: T1, CCK2R; assay: Competitive binding (FACS) on CCK2R-transfected HEK 293T cells with Cy5-labeled F11N derivative; conditions: Cy5-labeled F11N derivative competitive ligand (Table 4)
[6] = HEK 293T transfected, read-out: CCK2R IC50

T4 sequence (P30874 whole entry, species assumed): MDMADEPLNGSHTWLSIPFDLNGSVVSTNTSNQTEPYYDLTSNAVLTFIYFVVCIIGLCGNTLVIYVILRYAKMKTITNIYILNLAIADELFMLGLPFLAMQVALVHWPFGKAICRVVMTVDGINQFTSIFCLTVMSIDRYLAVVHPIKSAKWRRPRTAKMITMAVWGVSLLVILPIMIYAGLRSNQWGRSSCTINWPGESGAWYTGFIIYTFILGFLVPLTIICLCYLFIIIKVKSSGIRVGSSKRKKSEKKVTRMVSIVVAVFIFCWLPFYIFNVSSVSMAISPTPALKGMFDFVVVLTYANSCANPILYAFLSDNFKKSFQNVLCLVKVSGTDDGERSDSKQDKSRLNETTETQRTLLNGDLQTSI
T3 sequence (P30680 whole entry): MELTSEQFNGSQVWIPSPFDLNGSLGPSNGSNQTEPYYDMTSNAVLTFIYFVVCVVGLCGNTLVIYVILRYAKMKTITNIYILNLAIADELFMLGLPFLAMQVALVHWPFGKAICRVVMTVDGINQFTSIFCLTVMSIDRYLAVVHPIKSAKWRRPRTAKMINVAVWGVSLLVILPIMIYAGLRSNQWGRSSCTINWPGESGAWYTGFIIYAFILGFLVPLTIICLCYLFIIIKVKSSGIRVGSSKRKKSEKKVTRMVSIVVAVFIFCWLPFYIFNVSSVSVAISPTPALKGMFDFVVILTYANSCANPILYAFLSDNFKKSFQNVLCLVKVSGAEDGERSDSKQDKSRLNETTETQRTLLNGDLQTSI

Compound: C[C@@H](O)[C@H](NC(=O)[C@@H]1CSSC[C@H](NC(=O)[C@@H](Cc2ccccc2)NC(=O)COCCOCCNC(=O)[C@H](CCCCNC(=O)c2cccc(NC(=O)N[C@@H]3CN(C4CCCCC4)c4ccccc4N(CC(=O)C(C)(C)C)C3=O)c2)NC(=O)CN2CCN(CC(=O)O)CCN(CC(=O)O)CCN(CC(=O)O)CC2)C(=O)N[C@@H](Cc2ccc(O)cc2)C(=O)N[C@H](Cc2c[nH]c3ccccc23)C(=O)N[C@@H](CCCCN)C(=O)N[C@@H]([C@@H](C)O)C(=O)N1)C(=O)O [Compound I-37, DOTA-K(Z360)-OEG-f[CYwKTC]T-OH]
pIC50 (CCK2R [1]): 7.97 | pIC50 (CCK2R [2]): 8.38 | tissue uptake at 24 h (in vivo; uptake Kidney): 7.79 %ID/g | tissue uptake at 24 h (in vivo; uptake Liver): 2.4 %ID/g | tissue uptake at 24 h (in vivo; uptake Pancreas): 0.68 %ID/g | tissue uptake at 24 h (in vivo; uptake Spleen): 0.2 %ID/g | tissue uptake at 24 h (in vivo; uptake Stomach): 2.58 %ID/g | tissue uptake at 24 h (in vivo; uptake Tumor): 23.1 %ID/g | pIC50 (SSTR2 [3]): 8.52

Compound: C[C@@H](O)[C@H](NC(=O)[C@@H]1CSSC[C@H](NC(=O)[C@@H](Cc2ccccc2)C(=O)C(=O)COCCOCCNC(=O)[C@H](CCCCCC(=O)COCCOCCNC(=O)[C@H](Cc2c[nH]cn2)NC(=O)[C@H](CCC(=O)O)NC(=O)c2cccc(NC(=O)N[C@@H]3CN(C4CCCCC4)c4ccccc4N(CC(=O)C(C)(C)C)C3=O)c2)NC(=O)CN2CCN(CC(=O)O)CCN(CC(=O)O)CCN(CC(=O)O)CC2)C(=O)N[C@@H](Cc2ccc(O)cc2)C(=O)N[C@H](Cc2c[nH]c3ccccc23)C(=O)N[C@@H](CCCCN)C(=O)N[C@@H]([C@@H](C)O)C(=O)C1)C(=O)O [Compound I-79, DOTA- K(-OEG- His- Glu- Z360)- OEG- f[CYwKTC]T- OH]
pIC50 (SSTR2 [4]): 8.17 | pIC50 (CCK2R [5]; CCK2R IC50, HEK 293T transfected): 7.78

pIC50 (SSTR2 [4]): 8.30 | pIC50 (CCK2R [5]; [6]): 7.62
Compound: C[C@@H](O)[C@H](NC(=O)[C@@H]1CSSC[C@H](NC(=O)[C@@H](Cc2ccccc2)C(=O)C(=O)COCCOCCNC(=O)[C@H](CCCCCC(=O)COCCOCCNC(=O)COCCOCCNC(=O)C(Cc2ccc(C(=O)O)cc2)NC(=O)c2cccc(NC(=O)NN3CC(C4CCCCC4)c4ccccc4N(CC(=O)C(C)(C)C)C3=O)c2)NC(=O)CN2CCN(CC(=O)O)CCN(CC(=O)O)CCN(CC(=O)O)CC2)C(=O)N[C@@H](Cc2ccc(O)cc2)C(=O)N[C@H](Cc2c[nH]c3ccccc23)C(=O)N[C@@H](CCCCN)C(=O)N[C@@H]([C@@H](C)O)C(=O)C1)C(=O)O (stereo partly shown) [Compound I-80, DOTA-K(-OEG-OEG-Cbp-Z360)-OEG-f[CYwKTC]T-OH]

pIC50 (SSTR2 [4]): 8.03 | pIC50 (CCK2R [5]; [6]): 6.90
Compound: CC(=O)[C@H](Cc1ccc(O)cc1)NC(=O)[C@H](CSSC[C@H](NC(=O)[C@@H](NC(=O)[C@H](CCCCN)NC(=O)[C@H](N)Cc1c[nH]c2ccccc12)[C@@H](C)O)C(=O)N[C@H](C(C)=O)[C@@H](C)O)NC(=O)C(Cc1ccccc1)NC(=O)COCCOCCNC(=O)COCCOCCNC(=O)CC[C@H](NC(=O)C(CCC(=O)O)NC(=O)[C@H](CCCCNC(=O)c1cccc(NC(=O)N[C@@H]2CN(C3CCCCC3)c3ccccc3N(CC(=O)C(C)(C)C)C2=O)c1)NC(=O)CN1CCN(CC(=O)O)CCN(CC(=O)O)CCN(CC(=O)O)CC1)C(=O)O (stereo partly shown) [Compound I-75, DOTA-K(Z360)-Glu-gGlu-OEG-OEG-f[CYwKTC]T-OH] (I: {DOTA}-K([3Abz-CO-X1])[ξE][γGlu][AEEA][AEEA][ξF]C-X2 / II: H-[dW]KTC-X3; disulfide I:7-II:4)

Compound: C[C@@H](O)[C@H](NC(=O)[C@@H]1CSSC[C@H](NC(=O)[C@@H](Cc2ccccc2)NC(=O)COCCOCCNC(=O)[C@H](CCCCNC(=O)COCCOCCNC(=O)[C@H](CCC(=O)O)NC(=O)c2cccc(NC(=O)N[C@@H]3CN(C4CCCCC4)c4ccccc4N(CC(=O)C(C)(C)C)C3=O)c2)NC(=O)CN2CCN(CC(=O)O)CCN(CC(=O)O)CCN(CC(=O)O)CC2)C(=O)N[C@@H](Cc2ccc(O)cc2)C(=O)N[C@H](Cc2c[nH]c3ccccc23)C(=O)N[C@@H](CCCCN)C(=O)N[C@@H]([C@@H](C)O)C(=O)N1)C(=O)O [Compound I-30, DOTA-K(-OEG-E-Z360)-OEG-f[CYwKTC]T-OH]
pIC50 (CCK2R [1]): 8.89

Reference: patent US20260248972A1, “DUAL RECEPTOR TARGETING RADIOLIGANDS AND USES THEREOF RELATED APPLICATIONS” (priority 2022, published 2026)
